Among the data in ChEMBL document CHEMBL1158234, “Halistanol disulfate B, a novel sulfated sterol from the sponge Pachastrella sp.: inhibitor of endothelin converting enzyme” (J Nat Prod, 1996) are IC50 and Activity values, retold here.

The structures appear in SMILES notation. Activity calls are given as the source filed them. The rule behind the calls is not given here.

Assay [1] in a line: (§1) Inhibition of recombinant ECE expressed in african green monkey COS cells assessed as endothelin formation by EIA assay. Format: cell-based.
The subject of the next assay is COS. The description is as §1. Format: cell-based.

In general, IC50 refers to the concentration needed to halve the response being measured. Regarding `C=CCCC[C@@H](C)[C@H]1CC[C@H]2[C@@H]3CC[C@H]4C[C@H](OS(=O)(=O)O)[C@@H](OS(=O)(=O)O)C[C@]4(C)[C@H]3CC[C@]12C` [HALISTANOL DISULFATE B], in assay [1], the IC50 came to 2100 nM. Consider `O=C(NCCSSCCNC(=O)/C(Cc1cccc(OS(=O)(=O)O)c1Br)=N/O)/C(Cc1cc(Br)c(O)c(-c2ccc(C/C(=N\O)C(=O)NCCSSCCNC(=O)/C(Cc3ccc(OS(=O)(=O)O)c(Br)c3)=N/O)c(Br)c2O)c1)=N/O`, for which the outcome in the assay on COS was Active. The same measure, in the same setting: under `O=C(NCCSSCCNC(=O)/C(Cc1ccc(Br)c(OS(=O)(=O)O)c1)=N/O)/C(Cc1ccc(OS(=O)(=O)O)c(Br)c1)=N/O` stands “Active”; under `C[C@H](CC[C@H](C)C(C)(C)C)[C@H]1CC[C@H]2[C@@H]3C[C@H](OS(=O)(=O)O)[C@H]4C[C@H](OS(=O)(=O)O)[C@@H](OS(=O)(=O)O)C[C@]4(C)[C@H]3CC[C@]12C`, “Active”.

As to `C=CCCC[C@@H](C)[C@H]1CC[C@H]2[C@@H]3CC[C@H]4C[C@H](O)[C@@H](O)C[C@]4(C)[C@H]3CC[C@]12C`, in the assay on COS, the outcome was inactive.
